pIC50: −log10 of the molar value.

For orientation: pIC50 means −log10 of the IC50, conventionally taken in molar units.

The experiment deals with T1, human NOX4 (Homo sapiens, UniProt Q9NPH5).
T1 construct: The full-length human NOX4 (NM_016931.3) transcript was cloned; expressed in transfected cells
T1 sequence (Q9NPH5 1-578): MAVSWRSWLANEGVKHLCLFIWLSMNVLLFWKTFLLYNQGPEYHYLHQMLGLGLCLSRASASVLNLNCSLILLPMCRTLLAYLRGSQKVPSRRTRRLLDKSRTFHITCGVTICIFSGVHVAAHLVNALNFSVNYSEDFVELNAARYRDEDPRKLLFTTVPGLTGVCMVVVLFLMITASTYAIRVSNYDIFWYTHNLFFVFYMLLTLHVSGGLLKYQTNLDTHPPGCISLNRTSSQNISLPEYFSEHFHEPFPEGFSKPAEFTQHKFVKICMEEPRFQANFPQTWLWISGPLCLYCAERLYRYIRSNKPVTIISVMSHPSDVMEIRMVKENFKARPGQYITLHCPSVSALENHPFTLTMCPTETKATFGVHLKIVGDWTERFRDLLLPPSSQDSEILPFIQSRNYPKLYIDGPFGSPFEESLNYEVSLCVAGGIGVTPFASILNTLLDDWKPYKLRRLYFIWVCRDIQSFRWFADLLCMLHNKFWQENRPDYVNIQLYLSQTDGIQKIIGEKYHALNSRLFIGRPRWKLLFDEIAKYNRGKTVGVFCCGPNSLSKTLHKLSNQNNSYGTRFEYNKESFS
T1 sequence (P13498 1-195 partner): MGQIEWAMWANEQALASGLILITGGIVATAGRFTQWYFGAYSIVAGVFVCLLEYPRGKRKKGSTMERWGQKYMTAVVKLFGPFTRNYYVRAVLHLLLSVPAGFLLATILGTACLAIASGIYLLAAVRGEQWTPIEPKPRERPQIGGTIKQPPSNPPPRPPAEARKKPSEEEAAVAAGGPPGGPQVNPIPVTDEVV
The experiment can be described thus: Amplex Red activity assay (cellular H2O2 formation in hNOX4 T-REx-293 cells). The format is cell-based. The following applies: tet-induced 24 h, extracellular H2O2 by Amplex Red, 60 min 25° C., geometric mean if determined several times. In outline:
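Tet-induced (1 μg/mL, 24 h) HEK293 T-REx cells stably expressing full-length human NOX4, 20 000 cells/well, exposed to compounds (10 concentrations, 50 μM to 100 nM; 1.25% DMSO) for 60 min at 25°C. Extracellular H2O2 detected by Amplex Red resorufin fluorescence (ex 550/em 600 nm) versus vehicle; IC50 calculated.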
As for `O=C(Nc1ccc2sc(N3CCC(O)CC3)nc2c1)c1ccc2c(c1)CCO2` [Example 110, 2,3-Dihydro-benzofuran-5-carboxylic acid [2-(4-hydroxy-piperidin-1-yl)-benzothiazol-5-yl]-amide], the pIC50 was 5.69.

Consider `O=C(Nc1ccc2sc(N3CC[C@@H](O)C3)nc2c1)c1ccc2c(c1)CCO2` [Example 112, 2,3-Dihydro-benzofuran-5-carboxylic acid [2-((R)-3-hydroxy-pyrrolidin-1-yl)-benzothiazol-5-yl]-amide], for which the pIC50 was 5.64. With `COCC1CCCN1c1nc2cc(NC(=O)c3ccc4c(c3)CCO4)ccc2s1` (centres unmarked) [Example 113, 2,3-Dihydro-benzofuran-5-carboxylic acid [2-(2-methoxymethyl-pyrrolidin-1-yl)-benzothiazol-5-yl]-amide], the pIC50 is 5.49. The result for `O=C(Nc1ccc2sc(N3CCC[C@H](O)C3)nc2c1)c1ccc2c(c1)CCO2` [Example 114, 2,3-Dihydro-benzofuran-5-carboxylic acid [2-((S)-3-hydroxy-piperidin-1-yl)-benzothiazol-5-yl]-amide] reads 5.53; that for `O=C(Nc1ccc2sc(N3CCC4(COC4)C3)nc2c1)c1ccc2c(c1)CCO2` [Example 115, 2,3-Dihydro-benzofuran-5-carboxylic acid [2-(2-oxa-6-aza-spiro[3.4]oct-6-yl)-benzothiazol-5-yl]-amide], 5.47. `O=C(Nc1ccc2sc(N3CCC[C@@H](O)C3)nc2c1)c1ccc2c(c1)CCO2` [Example 116, 2,3-Dihydro-benzofuran-5-carboxylic acid [2-((R)-3-hydroxy-piperidin-1-yl)-benzothiazol-5-yl]-amide]: the pIC50 is 5.66. The result for `CN(C)CC1CCCN1c1nc2cc(NC(=O)c3ccc4c(c3)CCO4)ccc2s1` (centres unmarked) [Example 117, 2,3-Dihydro-benzofuran-5-carboxylic acid [2-(2-dimethylaminomethyl-pyrrolidin-1-yl)-benzothiazol-5-yl]-amide] reads 5.42. The result for `O=C(Nc1ccc2oc(N3CCC3)nc2c1)c1ccc2c(c1)CCO2` [Example 118, 2,3-Dihydro-benzofuran-5-carboxylic acid (2-azetidin-1-yl-benzooxazol-5-yl)-amide] reads 6.30. The result for `CCNc1nc2cc(NC(=O)c3ccc4c(c3)CCO4)ccc2o1` [Example 119, 2,3-Dihydro-benzofuran-5-carboxylic acid (2-ethylamino-benzooxazol-5-yl)-amide] reads 6.00; that for `O=C(Nc1ccc2oc(N3CC(c4ccccn4)C3)nc2c1)c1ccc2c(c1)CCO2` [Example 120, 2,3-Dihydro-benzofuran-5-carboxylic acid [2-(3-pyridin-2-yl-azetidin-1-yl)-benzooxazol-5-yl]-amide], 5.63; that for `O=C(Nc1ccc2oc(N3CC(F)(F)C3)nc2c1)c1ccc2c(c1)OCO2` [Example 121, Benzo[1,3]dioxole-5-carboxylic acid [2-(3,3-difluoro-azetidin-1-yl)-benzooxazol-5-yl]-amide], 5.02. With `O=C(Nc1ccc2oc(N3CC(O)C3)nc2c1)c1ccc2c(c1)OCO2` [Example 122, Benzo[1,3]dioxole-5-carboxylic acid [2-(3-hydroxy-azetidin-1-yl)-benzooxazol-5-yl]-amide], the pIC50 was 5.68. The result for `O=C(Nc1ccc2oc(N3CCC34CCC4)nc2c1)c1ccc2c(c1)OCO2` [Example 123, Benzo[1,3]dioxole-5-carboxylic acid [2-(1-aza-spiro[3.3]hept-1-yl)-benzooxazol-5-yl]-amide] reads 6.36.

In the case of `O=C(Nc1ccc2oc(N3CCC34COC4)nc2c1)c1ccc2c(c1)OCO2` [Example 124, Benzo[1,3]dioxole-5-carboxylic acid [2-(6-oxa-1-aza-spiro[3.3]hept-1-yl)-benzooxazol-5-yl]-amide], the pIC50 was 6.38.

With `O=C(Nc1ccc2oc(N3CCC34CCOC4)nc2c1)c1ccc2c(c1)OCO2` (centres unmarked) [Example 125, Benzo[1,3]dioxole-5-carboxylic acid [2-(6-oxa-1-aza-spiro[3.4]oct-1-yl)-benzooxazol-5-yl]-amide], the pIC50 was 6.11.

As to `O=C(Nc1ccc2oc(N3CCC34CCOCC4)nc2c1)c1ccc2c(c1)OCO2` [Example 126, Benzo[1,3]dioxole-5-carboxylic acid [2-(7-oxa-1-aza-spiro[3.5]non-1-yl)-benzooxazol-5-yl]-amide], the negative-log IC50 (pIC50) is 6.12. The result for `O=C(Nc1ccc2oc(N3CCCC3)nc2c1)c1ccc2c(c1)OCO2` [Example 127, Benzo[1,3]dioxole-5-carboxylic acid (2-pyrrolidin-1-yl-benzooxazol-5-yl)-amide] reads 5.90. With `O=C(Nc1ccc2oc(N3CCCC34COC4)nc2c1)c1ccc2c(c1)OCO2` [Example 128, Benzo[1,3]dioxole-5-carboxylic acid [2-(2-oxa-5-aza-spiro[3.4]oct-5-yl)-benzooxazol-5-yl]-amide], the negative logarithm of the IC50 (pIC50) is 5.76. The result for `O=C(Nc1ccc2oc(N3CCCCC3)nc2c1)c1ccc2c(c1)OCO2` [Example 129, Benzo[1,3]dioxole-5-carboxylic acid (2-piperidin-1-yl-benzooxazol-5-yl)-amide] reads 6.07; that for `O=C(Nc1ccc2oc(N3CCCC(F)(F)C3)nc2c1)c1ccc2c(c1)OCO2` [Example 130, Benzo[1,3]dioxole-5-carboxylic acid [2-(3,3-difluoro-piperidin-1-yl)-benzooxazol-5-yl]-amide], 6.00. For `COC1CCN(c2nc3cc(NC(=O)c4ccc5c(c4)OCO5)ccc3o2)CC1` [Example 131, Benzo[1,3]dioxole-5-carboxylic acid [2-(4-methoxy-piperidin-1-yl)-benzooxazol-5-yl]-amide], the pIC50 was 5.98. Regarding `O=C(Nc1ccc2oc(N3CCC4(CC3)COC4)nc2c1)c1ccc2c(c1)OCO2` [Example 132, Benzo[1,3]dioxole-5-carboxylic acid [2-(2-oxa-7-aza-spiro[3.5]non-7-yl)-benzooxazol-5-yl]-amide], the pIC50 was 5.97. With `O=C(Nc1ccc2oc(N3CCCC4(COC4)C3)nc2c1)c1ccc2c(c1)OCO2` [Example 133, Benzo[1,3]dioxole-5-carboxylic acid [2-(2-oxa-6-aza-spiro[3.5]non-6-yl)-benzooxazol-5-yl]-amide], the pIC50 was 6.21. On to `O=C(Nc1ccc2oc(N3CCC(F)(F)CC3)nc2c1)c1ccc2c(c1)OCO2` [Example 134, Benzo[1,3]dioxole-5-carboxylic acid [2-(4,4-difluoro-piperidin-1-yl)-benzooxazol-5-yl]-amide], for which the pIC50 was 6.06. For the molecule `O=C(Nc1ccc2oc(N3CCC(O)CC3)nc2c1)c1ccc2c(c1)OCO2` [Example 135, Benzo[1,3]dioxole-5-carboxylic acid [2-(4-hydroxy-piperidin-1-yl]-benzooxazol-5-yl]-amide], the pIC50 is 5.96. Under `O=C(Nc1ccc2oc(N3CCOCC3)nc2c1)c1ccc2c(c1)OCO2` [Example 136, Benzo[1,3]dioxole-5-carboxylic acid (2-morpholin-4-yl-benzooxazol-5-yl)-amide] stands 5.89; under `CN1CCN(c2nc3cc(NC(=O)c4ccc5c(c4)OCO5)ccc3o2)CC1` [Example 137, Benzo[1,3]dioxole-5-carboxylic acid [2-(4-methyl-piperazin-1-yl)-benzooxazol-5-yl]-amide], 5.79. Under `O=C(Nc1ccc2oc(N(C3CC3)C3COC3)nc2c1)c1ccc2c(c1)OCO2` [Example 138, Benzo[1,3]dioxole-5-carboxylic acid [2-(cyclopropyl-oxetan-3-yl-amino)-benzooxazol-5-yl]-amide] stands 5.83; under `CCN(CC)c1nc2cc(NC(=O)c3ccc4c(c3)OCO4)ccc2o1` [Example 139, Benzo[1,3]dioxole-5-carboxylic acid (2-diethylamino-benzooxazol-5-yl)-amide], 5.96; under `O=C(Nc1ccc2oc(N3CC(O)C3)nc2c1)c1ccc2c(c1)CCCO2` [Example 140, Chroman-6-carboxylic acid [2-(3-hydroxy-azetidin-1-yl)-benzooxazol-5-yl]-amide], 5.60. Under `O=C(Nc1ccc2oc(N3CC(F)(F)C3)nc2c1)c1ccc2c(c1)CCCO2` [Example 141, Chroman-6-carboxylic acid [2-(3,3-difluoro-azetidin-1-yl)-benzooxazol-5-yl]-amide] stands 4.97; under `O=C(Nc1ccc2oc(N3CCC34CCC4)nc2c1)c1ccc2c(c1)CCCO2` [Example 142, Chroman-6-carboxylic acid [2-(1-aza-spiro[3.3]hept-1-yl)-benzooxazol-5-yl]-amide], 6.05.

Source of the values: patent US11136317B2, “NADPH oxidase 4 inhibitors” (ACTELION PHARMACEUTICALS LTD, priority 2015, dated 2021).
